This note sets out measurements from the NIST ThermoML archive (doi:10.1021/acs.jced.5b00094).

The term mass density denotes the mass of a sample divided by its volume.

± gives the expanded uncertainty stated by the source.

This data set is described as follows: wn = mass fraction of the nth substance listed. Particulars: 348 K, 101 kPa, Liquid, Pycnometric method.

Turning to `[Cl-].[K+]` [potassium chloride] + O, the mass density (w1 = 0.332) is 1204 ± 1.6 kg/m3.

For the molecule `[Cl-].[Na+]` [sodium chloride] + O, the mass density (w1 = 0.2745) was 1183 ± 1.4 kg/m3.

On to `[Cl-].[Cl-].[Sr+2]` [strontium chloride] + O, for which the mass density (w1 = 0.4775) is recorded as 1620.5 ± 21 kg/m3.
